The source of these data is ChEMBL document CHEMBL1177813, “Design and synthesis of trivalent ligands targeting opioid, cholecystokinin, and melanocortin receptors for the treatment of pain” (Bioorg Med Chem Lett, 2010).

The target of experiment [1] is T1, Delta-type opioid receptor (Mus musculus, UniProt P32300). In words: Agonist activity at delta opioid receptor in mouse vas deferens assessed as inhibition of electrically-stimulated muscle contraction. In kind it is functional, tissue-based.
T1 sequence (P32300 whole entry): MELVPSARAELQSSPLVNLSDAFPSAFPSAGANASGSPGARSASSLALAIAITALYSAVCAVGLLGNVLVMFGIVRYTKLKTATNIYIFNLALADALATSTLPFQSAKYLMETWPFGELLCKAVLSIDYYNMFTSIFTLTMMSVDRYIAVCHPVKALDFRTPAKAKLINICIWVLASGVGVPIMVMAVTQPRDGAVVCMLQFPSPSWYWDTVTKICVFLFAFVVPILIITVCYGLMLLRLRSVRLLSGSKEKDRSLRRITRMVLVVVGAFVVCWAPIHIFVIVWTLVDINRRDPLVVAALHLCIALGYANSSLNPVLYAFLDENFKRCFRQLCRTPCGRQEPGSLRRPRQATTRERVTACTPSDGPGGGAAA
A short description of experiment [2]: Agonist activity at CCK receptor in Hartley guinea pig ileum longitudinal muscle with myenteric plexus assessed as inhibition of electrically-stimulated muscle contraction at 1 uM relative to KCl. More on the design: scale not given: the % may be the effect or the level left. The format is functional, Cavia porcellus.
The target of experiment [3] is Mu-type opioid receptor (Rattus norvegicus, UniProt P33535). Put plainly: Displacement of [3H]DAMGO from rat mu opioid receptor expressed in mouse HN9.10 cells. The format is cell-based.
Sequence of Mu-type opioid receptor (Rattus norvegicus, UniProt P33535) (P33535 whole entry): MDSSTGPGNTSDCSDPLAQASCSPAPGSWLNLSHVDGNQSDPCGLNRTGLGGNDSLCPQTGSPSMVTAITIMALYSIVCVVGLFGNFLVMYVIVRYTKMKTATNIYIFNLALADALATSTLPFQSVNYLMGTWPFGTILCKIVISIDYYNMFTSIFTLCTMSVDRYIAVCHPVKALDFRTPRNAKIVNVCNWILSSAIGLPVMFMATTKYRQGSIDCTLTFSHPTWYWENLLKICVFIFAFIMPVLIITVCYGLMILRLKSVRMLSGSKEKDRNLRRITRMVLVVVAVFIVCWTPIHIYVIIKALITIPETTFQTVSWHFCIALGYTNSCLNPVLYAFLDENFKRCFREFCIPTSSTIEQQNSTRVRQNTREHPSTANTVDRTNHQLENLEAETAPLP
The target of experiment [4] is T2, Cholecystokinin receptor type A (Homo sapiens, UniProt P32238).
T2 sequence (P32238 whole entry): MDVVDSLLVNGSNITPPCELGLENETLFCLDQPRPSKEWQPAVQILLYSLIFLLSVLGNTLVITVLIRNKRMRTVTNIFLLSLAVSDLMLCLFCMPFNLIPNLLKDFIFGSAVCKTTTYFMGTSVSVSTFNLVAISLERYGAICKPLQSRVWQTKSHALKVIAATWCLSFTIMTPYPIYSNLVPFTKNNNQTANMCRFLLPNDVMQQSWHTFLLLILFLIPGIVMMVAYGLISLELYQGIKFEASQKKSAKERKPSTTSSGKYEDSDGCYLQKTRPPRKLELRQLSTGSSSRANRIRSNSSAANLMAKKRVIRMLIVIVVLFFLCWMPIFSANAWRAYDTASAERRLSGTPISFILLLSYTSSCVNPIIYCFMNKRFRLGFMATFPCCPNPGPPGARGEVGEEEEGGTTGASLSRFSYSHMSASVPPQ
In words: Displacement of [125I]CCK-8(SO3) from human CCK1 receptor expressed in human HEK293 cells. In kind it is cell-based. Conditions: for Ki: read-out: Ki.

Experiment [5] addresses T3, Gastrin/cholecystokinin type B receptor (Homo sapiens, UniProt P32239).
T3 sequence (P32239 whole entry): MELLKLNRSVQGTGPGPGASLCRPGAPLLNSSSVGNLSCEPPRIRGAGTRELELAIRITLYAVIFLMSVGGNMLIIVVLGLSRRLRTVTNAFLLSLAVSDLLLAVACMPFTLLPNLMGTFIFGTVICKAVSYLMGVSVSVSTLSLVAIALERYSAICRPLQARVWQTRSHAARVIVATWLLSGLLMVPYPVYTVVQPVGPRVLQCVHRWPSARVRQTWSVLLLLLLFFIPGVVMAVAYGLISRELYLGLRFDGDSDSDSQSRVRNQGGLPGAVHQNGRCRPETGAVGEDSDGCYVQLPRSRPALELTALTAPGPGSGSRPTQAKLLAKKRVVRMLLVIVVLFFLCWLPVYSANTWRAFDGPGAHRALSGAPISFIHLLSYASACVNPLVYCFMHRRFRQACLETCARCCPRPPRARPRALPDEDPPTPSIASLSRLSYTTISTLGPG
In words: Displacement of [125I]CCK-8(SO3) from human CCK2 receptor expressed in human HEK293 cells. In kind it is cell-based. Conditions: for Ki: read-out: Ki.

The target of another experiment is Melanocortin receptor 4 (Homo sapiens, UniProt P32245). In words: Displacement of Eu-NDP-alphaMSH from human MC4 receptor expressed in human HEK293 cells. The format is cell-based.
Sequence of Melanocortin receptor 4 (P32245 whole entry): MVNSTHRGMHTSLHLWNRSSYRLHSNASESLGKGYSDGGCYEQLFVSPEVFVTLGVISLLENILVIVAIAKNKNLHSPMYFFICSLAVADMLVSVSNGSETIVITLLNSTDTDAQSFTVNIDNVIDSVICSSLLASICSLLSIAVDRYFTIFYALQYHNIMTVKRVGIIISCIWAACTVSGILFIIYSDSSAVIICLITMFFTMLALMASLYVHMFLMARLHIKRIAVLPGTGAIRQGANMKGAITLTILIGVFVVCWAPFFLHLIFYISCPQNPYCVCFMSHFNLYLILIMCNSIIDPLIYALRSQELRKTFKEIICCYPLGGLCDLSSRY
The nature of experiment [6]: […] activity at CCK receptor in Hartley guinea pig ileum longitudinal muscle with myenteric plexus assessed as inhibition of CCK8-stimulated muscle contraction. The format is functional, Cavia porcellus.
In experiment [7] the target is Mu-type opioid receptor (Cavia porcellus, UniProt P97266). In words: Agonist activity at mu opioid receptor in guinea pig ileum assessed as inhibition of electrically-stimulated muscle contraction. The format is functional, tissue-based.
Sequence of Mu-type opioid receptor (Cavia porcellus, UniProt P97266) (P97266 whole entry): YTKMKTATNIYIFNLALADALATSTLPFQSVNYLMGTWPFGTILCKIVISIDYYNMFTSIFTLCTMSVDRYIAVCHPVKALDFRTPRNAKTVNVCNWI
Experiment [8] addresses Delta-type opioid receptor (Homo sapiens, UniProt P41143). Put plainly: Displacement of [3H]DPDPE from human delta opioid receptor expressed in mouse HN9.10 cells. In kind it is cell-based.
Experiment [9] addresses Delta-type opioid receptor (Mus musculus) (UniProt P32300). Put plainly: Agonist activity at delta opioid receptor in mouse vas deferens assessed as inhibition of electrically-stimulated muscle contraction at 1 uM. More on the design: scale not given: the % may be the effect or the level left. The format is functional, tissue-based.
Experiment [10] has as its target Mu-type opioid receptor (Cavia porcellus) (UniProt P97266). Put plainly: Agonist activity at mu opioid receptor in guinea pig ileum assessed as inhibition of electrically-stimulated muscle contraction at 1 uM. The format is functional, tissue-based. Also noted: scale not given: the % may be the effect or the level left.
The species entered for another experiment is Cavia porcellus. Put plainly: […] activity at CCK receptor in Hartley guinea pig ileum longitudinal muscle with myenteric plexus assessed as inhibition of CCK8-stimulated muscle contraction at 1 uM. The format is functional, tissue-based.
Another experiment is filed under the species Homo sapiens. Put plainly: Selectivity ratio of Ki for human CCK1 receptor to Ki for human CCk2 receptor.
Experiment [11] concerns the target T1, Delta-type opioid receptor. Put plainly: Antagonist activity at delta opioid receptor in mouse vas deferens assessed as inhibition of DPDPE-induced muscle contraction. In kind it is functional, tissue-based.

Calls of active or inactive are those of the source. The rule behind the calls is not given here.

Sequence of Delta-type opioid receptor (Homo sapiens, UniProt P41143) (P41143 whole entry): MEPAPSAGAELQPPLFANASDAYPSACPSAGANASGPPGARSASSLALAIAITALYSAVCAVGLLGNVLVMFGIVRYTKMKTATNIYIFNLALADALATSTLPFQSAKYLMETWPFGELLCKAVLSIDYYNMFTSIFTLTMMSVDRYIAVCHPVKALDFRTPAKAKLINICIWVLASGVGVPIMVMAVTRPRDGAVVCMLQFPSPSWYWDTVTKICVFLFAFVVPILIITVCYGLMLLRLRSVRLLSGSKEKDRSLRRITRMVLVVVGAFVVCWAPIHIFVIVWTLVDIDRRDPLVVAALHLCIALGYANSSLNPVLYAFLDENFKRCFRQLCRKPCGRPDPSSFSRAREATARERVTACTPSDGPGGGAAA
Sequence of Mu-type opioid receptor (Cavia porcellus) (P97266 whole entry): as the sequence (P97266 whole entry) above
Sequence of Delta-type opioid receptor (Mus musculus) (P32300 whole entry): as the sequence (P32300 whole entry) above

Consider `CCCC[C@H](NC(=O)[C@H](Cc1c[nH]c2ccccc12)NC(=O)[C@H](CCCNC(=N)N)NC(=O)[C@@H](Cc1ccc2ccccc2c1)NC(=O)[C@H](Cc1cnc[nH]1)NC(=O)[C@H](Cc1ccccc1)NC(=O)CNC(=O)[C@@H](C)NC(=O)[C@@H](N)Cc1c(C)cc(O)cc1C)C(=O)N[C@@H](CC(=O)O)C(=O)N[C@@H](Cc1ccccc1)C(N)=O`, for which the IC50 in [1] is 11 nM; on Mu-type opioid receptor [3] it was 0.251 nM; in experiment [4], 20 nM; in experiment [5] it was 126 nM; on Melanocortin receptor 4 it was 160 nM; on Mu-type opioid receptor [7], 8.3 nM. For the same compound, in experiment [2], the Activity was 0%. Further, the figures for the inhibitory constant (Ki) (on Mu-type opioid receptor [3]; in experiment [4]; in [5]) were 0.13 nM, 18 nM and 110 nM, respectively. Besides, in experiment [6], the Ke came to 940 nM.

Take `N=C(N)NCCC[C@@H]1NC(=O)[C@H](Cc2ccc(Cl)cc2)NC(=O)[C@H](Cc2cnc[nH]2)NC(=O)CNC(=O)[C@H](NC(=O)[C@@H](N)Cc2ccc(O)cc2)CC(=O)NCCCC[C@@H](C(=O)N[C@@H](CC(=O)O)C(=O)N[C@H](Cc2ccccc2)C(N)=O)NC(=O)[C@H](Cc2cc3ccccc3[nH]2)NC1=O`: the Activity in experiment [2] was 0%; in experiment [9], 16%; in experiment [10], 0%. Further, the IC50 in [8] is 2510 nM; on Mu-type opioid receptor [3], 3980 nM; in [4], 126 nM; in experiment [5] it was 1000 nM; at Melanocortin receptor 4, 32 nM. Further, the inhibitory constant (Ki) was determined as 1300 nM in experiment [8], 2100 nM at Mu-type opioid receptor [3], 560 nM in [4] and 930 nM in [5]. In the experiment filed under Cavia porcellus, the Ke result was “inactive”.

Take `CCCC[C@H](NC(=O)[C@H](Cc1c[nH]c2ccccc12)NC(=O)[C@H](CCCNC(=N)N)NC(=O)[C@@H](Cc1ccc2ccccc2c1)NC(=O)[C@H](Cc1cnc[nH]1)NC(=O)[C@H](Cc1ccccc1)NC(=O)CNC(=O)[C@@H](C)NC(=O)[C@@H](N)Cc1ccc(O)cc1)C(=O)N[C@@H](CC(=O)O)C(=O)N[C@@H](Cc1ccccc1)C(N)=O`: the half-maximal inhibitory concentration (IC50) in experiment [1] was 60 nM; in [8], 6.31 nM; at Mu-type opioid receptor [3], 1.26 nM; in experiment [4], 10 nM; in [5], 126 nM; at Melanocortin receptor 4, 260 nM. The IC50 on Mu-type opioid receptor [7] was 200 nM. Moreover, the Activity in experiment [2] turned out to be 0%. The Ki in [8] worked out at 2.9 nM; at Mu-type opioid receptor [3] it was 0.69 nM; in [4] it was 9 nM; in experiment [5], 120 nM. Moreover, in the experiment filed under Cavia porcellus, the Ke result is “inactive”. Further, the Ratio Ki in the experiment listed under Homo sapiens came to 0.075.

Take `CCCC[C@H](NC(=O)[C@H](Cc1c[nH]c2ccccc12)NC(=O)[C@H](CCCNC(=N)N)NC(=O)[C@@H](Cc1ccc2ccccc2c1)NC(=O)[C@H](Cc1cnc[nH]1)NC(=O)[C@@H]1Cc2ccccc2CN1C(=O)C(N)Cc1c(C)cc(O)cc1C)C(=O)N[C@@H](CC(=O)O)C(=O)N[C@@H](Cc1ccccc1)C(N)=O` (single isomer, unassigned): the figures for the Activity in experiment [2] and in experiment [10] were 0% and 5%, respectively. Moreover, the IC50 in experiment [8] was 2 nM; on Mu-type opioid receptor [3], 100 nM; in experiment [4], 15.8 nM; in [5] it was 200 nM; on Melanocortin receptor 4, 230 nM; in experiment [11], 2.5 nM. Moreover, the inhibition constant Ki in [8] was 0.91 nM; on Mu-type opioid receptor [3], 47 nM; in experiment [4], 15 nM; in [5], 200 nM. Besides, the Ke entry in the experiment filed under Cavia porcellus is “inactive”.
